{"source": "patent US7105534B2", "about": "“Imidazo[1,2-α]pyridine ether compounds as ion channel modulators” (Cardiome Pharma Corp., priority 2000, dated 2006)", "key": {"hH1 Na+ current": {"molecular_target": "T1, hH1 Na+ current (Homo sapiens, UniProt Q14524)", "T1 construct": "expressed in transfected cells; host or cells: HEK cells, transient transfection, vector pCDNA3", "T1 sequence (Q14524 whole entry)": "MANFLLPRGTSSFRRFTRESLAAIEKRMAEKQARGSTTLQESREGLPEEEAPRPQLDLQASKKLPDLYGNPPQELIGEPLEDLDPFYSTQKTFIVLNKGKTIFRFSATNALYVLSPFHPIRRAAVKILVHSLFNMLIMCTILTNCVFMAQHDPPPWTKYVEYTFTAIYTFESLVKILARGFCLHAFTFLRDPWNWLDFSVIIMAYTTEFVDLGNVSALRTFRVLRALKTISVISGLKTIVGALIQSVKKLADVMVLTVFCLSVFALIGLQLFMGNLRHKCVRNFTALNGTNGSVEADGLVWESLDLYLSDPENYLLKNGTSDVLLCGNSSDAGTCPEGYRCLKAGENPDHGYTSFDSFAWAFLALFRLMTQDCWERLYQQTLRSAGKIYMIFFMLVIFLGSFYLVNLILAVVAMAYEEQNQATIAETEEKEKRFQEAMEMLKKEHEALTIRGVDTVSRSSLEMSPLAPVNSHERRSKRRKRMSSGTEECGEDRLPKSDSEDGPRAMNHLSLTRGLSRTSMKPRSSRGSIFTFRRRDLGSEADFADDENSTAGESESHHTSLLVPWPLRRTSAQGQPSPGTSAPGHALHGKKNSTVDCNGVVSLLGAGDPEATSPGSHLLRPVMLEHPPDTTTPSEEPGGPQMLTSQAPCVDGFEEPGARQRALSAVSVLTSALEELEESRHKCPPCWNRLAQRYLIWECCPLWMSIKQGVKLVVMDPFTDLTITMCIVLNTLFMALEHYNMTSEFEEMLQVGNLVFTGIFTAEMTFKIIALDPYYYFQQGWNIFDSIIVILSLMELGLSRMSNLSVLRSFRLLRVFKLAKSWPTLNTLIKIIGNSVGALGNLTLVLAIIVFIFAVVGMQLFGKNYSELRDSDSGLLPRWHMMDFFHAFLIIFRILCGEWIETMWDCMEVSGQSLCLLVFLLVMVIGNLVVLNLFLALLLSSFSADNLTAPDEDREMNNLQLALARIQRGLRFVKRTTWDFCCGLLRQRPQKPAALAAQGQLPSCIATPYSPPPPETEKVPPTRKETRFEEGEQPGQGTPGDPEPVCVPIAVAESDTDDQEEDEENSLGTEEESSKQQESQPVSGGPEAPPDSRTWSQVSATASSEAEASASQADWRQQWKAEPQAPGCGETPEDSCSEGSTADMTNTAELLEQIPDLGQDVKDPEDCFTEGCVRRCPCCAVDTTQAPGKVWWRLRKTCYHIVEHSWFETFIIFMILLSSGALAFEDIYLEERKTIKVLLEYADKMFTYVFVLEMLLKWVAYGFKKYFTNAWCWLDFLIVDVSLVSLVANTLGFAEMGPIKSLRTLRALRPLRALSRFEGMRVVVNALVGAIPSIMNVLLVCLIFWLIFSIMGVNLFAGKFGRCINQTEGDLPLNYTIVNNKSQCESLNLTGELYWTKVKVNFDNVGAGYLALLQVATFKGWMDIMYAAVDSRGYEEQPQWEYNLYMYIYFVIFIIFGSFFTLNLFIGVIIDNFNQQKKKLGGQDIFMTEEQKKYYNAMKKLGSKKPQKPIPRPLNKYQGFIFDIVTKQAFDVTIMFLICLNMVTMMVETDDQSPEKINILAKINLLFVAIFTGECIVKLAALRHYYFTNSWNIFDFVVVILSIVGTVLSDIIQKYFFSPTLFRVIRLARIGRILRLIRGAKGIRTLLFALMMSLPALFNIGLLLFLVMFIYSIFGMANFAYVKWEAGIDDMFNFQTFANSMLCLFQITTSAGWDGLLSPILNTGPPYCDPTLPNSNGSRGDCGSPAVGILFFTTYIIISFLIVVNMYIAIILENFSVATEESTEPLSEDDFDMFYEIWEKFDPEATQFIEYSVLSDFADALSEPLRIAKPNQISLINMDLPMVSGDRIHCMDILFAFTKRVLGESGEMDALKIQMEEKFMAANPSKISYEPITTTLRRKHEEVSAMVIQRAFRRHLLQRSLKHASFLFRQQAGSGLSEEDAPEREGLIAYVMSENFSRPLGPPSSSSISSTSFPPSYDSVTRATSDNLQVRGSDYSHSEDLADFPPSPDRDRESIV", "experiment": "Patch-clamp inhibition of cloned ion channel current in transfected HEK cells: Na", "format": "cell-based", "conditions": "peak hH1 Na+ current, -100 mV to -30 mV", "protocol": "The relevant cloned ion channels (e.g. cardiac hH1, Kv1.4, Kv1.5, Kv4.2, Kv2.1, HERG etc.) are studied by transient transfection into HEK cells using the mammalian expression vector pCDNA3. Transfections for each channel type are carried out separately to allow individual study of the ion channel of interest. Cells expressing channel protein are detected by cotransfecting cells with the vector pHook-1 (Invitrogen, San Diego, Calif., USA). […] Equal concentrations of individual channel and pHook DNA are incubated with 10× concentration of lipofectAce in Modified Eagle's Medium (MEM, Canadian Life Technologies) and incubated with parent HEK cells plated on 25 mm culture dishes. After 3–4 hours the solution is replaced with a standard culture medium plus 20% fetal bovine serum and 1% antimycotic. Transfected cells are maintained at 37C in an air/5% CO2 incubator in 25 mm Petri dishes plated on glass coverslips for 24–48 hours to allow channel expression to occur. 20 min prior to experiments, cells are treated with beads coated with phOX. After 15 min, excess beads are […] off with cell culture medium and cells which had beads stuck to them are used for electrophysiological tests.\nFor whole-cell recording the control pipette filling solution contained (in mM): KCl, 130; EGTA, 5; MgCl2, 1; HEPES, 10; Na2ATP, 4; GTP, 0.1; and is adjusted to pH 7.2 with KOH. The control bath solution contained (in mM): NaCl, 135; KCI, 5; sodium acetate, 2.8; MgCl2, 1; HEPES, 10; CaCl2, 1; and is adjusted to pH 7.4 with NaOH. The test ion channel modulating compound is dissolved to 10 mM stock solutions in water and used at concentrations between 0.5 and 100 μM.\nCoverslips containing cells are removed from the incubator before experiments and placed in a superfusion chamber (volume 250 μl) containing the control bath solution at 22C to 23C. All recordings are made via the variations of the patch-clamp technique, using an Axopatch 200A amplifier (Axon Instruments, CA). Patch electrodes are pulled from thin-walled borosilicate glass (World Precision Instruments; FL) on a horizontal micropipette puller, fire-polished, and filled with appropriate solutions. Electrodes had resistances of […] when filled with control filling solution. Analog capacity compensation is used in all whole cell measurements. In some experiments, leak subtraction is applied to data. Membrane potentials have not been corrected for any junctional potentials that arose between the pipette and bath solution. Data are filtered at 5 to 10 kHz before digitization and stored on a microcomputer for later analysis using the pClamp6 software (Axon Instruments, Foster City, Calif.). Due to the high level of expression of channel cDNA's in HEK cells, there is no need for signal averaging. The average cell capacitance is quite small, and the absence of ionic current at negative membrane potentials allowed faithful leak subtraction of data.\nThe concentration-response curves for changes in peak and steady-state current produced by the test compound are computer-fitted to the Hill equation: f=1−1/[1+([…])^n] [1]\nwhere f is the fractional current (f=Idrug/Icontrol) at drug concentration [D]; IC50 is the concentration producing half-maximal inhibition and n is the Hill coefficient.\nCompounds of the present invention may be evaluated by this method. […] Block is determined from the decrease in peak hH1 Na^+ current, or in steady-state Kv1.5 and integrated Kv4.2 current in the presence of drug. To record Na^+ current, cells are depolarized from the holding potential of −100 mV to a voltage of −30 mV for 10 ms to fully open and inactivate the channel. To record Kv1.5 and Kv4.2 current, cells are depolarized from the holding potential of −80 mV to a voltage of +60 mV for 200 ms to fully open the channel. Currents are recorded in the steady-state at a range of drug concentrations during stimulation every 4 s. […]"}, "HERG": {"molecular_target": "T2, HERG (Homo sapiens, UniProt Q12809)", "T2 construct": "expressed in transfected cells; host or cells: HEK cells, transient transfection, vector pCDNA3", "T2 sequence (Q12809 whole entry)": "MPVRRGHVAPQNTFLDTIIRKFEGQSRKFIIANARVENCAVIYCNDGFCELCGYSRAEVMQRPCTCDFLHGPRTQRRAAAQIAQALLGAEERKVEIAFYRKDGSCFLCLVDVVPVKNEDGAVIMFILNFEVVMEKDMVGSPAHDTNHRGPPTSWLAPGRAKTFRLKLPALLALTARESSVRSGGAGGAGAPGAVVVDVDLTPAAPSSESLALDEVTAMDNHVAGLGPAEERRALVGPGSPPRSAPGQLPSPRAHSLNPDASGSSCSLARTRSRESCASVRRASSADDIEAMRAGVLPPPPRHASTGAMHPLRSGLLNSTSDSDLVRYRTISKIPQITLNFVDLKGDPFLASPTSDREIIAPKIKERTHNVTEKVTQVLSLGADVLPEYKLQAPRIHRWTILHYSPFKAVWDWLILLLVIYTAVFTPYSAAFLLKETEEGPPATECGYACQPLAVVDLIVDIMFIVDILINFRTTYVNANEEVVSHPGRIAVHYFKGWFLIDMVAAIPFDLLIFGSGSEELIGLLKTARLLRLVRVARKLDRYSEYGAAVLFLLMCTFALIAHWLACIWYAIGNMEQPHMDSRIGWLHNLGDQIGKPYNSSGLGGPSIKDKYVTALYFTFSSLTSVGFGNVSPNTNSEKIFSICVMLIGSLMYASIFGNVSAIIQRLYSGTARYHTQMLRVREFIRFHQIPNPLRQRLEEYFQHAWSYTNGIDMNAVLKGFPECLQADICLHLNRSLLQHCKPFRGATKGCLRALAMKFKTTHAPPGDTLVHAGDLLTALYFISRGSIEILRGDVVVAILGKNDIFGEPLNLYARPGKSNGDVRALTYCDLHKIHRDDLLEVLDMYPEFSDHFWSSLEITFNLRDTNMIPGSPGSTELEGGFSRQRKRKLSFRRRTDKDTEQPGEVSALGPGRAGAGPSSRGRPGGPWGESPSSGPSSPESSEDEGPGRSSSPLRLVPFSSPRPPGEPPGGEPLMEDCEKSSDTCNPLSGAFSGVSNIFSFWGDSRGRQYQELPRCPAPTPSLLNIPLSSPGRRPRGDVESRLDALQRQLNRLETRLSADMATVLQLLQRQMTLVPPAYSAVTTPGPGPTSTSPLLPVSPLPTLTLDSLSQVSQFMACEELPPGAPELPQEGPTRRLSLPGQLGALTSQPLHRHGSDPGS", "experiment": "Patch-clamp inhibition of cloned ion channel current in transfected HEK cells: HERG", "format": "cell-based", "conditions": "whole-cell patch clamp", "procedure,_shortened": "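HERG channels were expressed by transient lipofection of HEK cells with pCDNA3 plus the pHook-1 marker, and bead-tagged cells were selected after 24–48 hours. Whole-cell currents were recorded at 22C to 23C with an Axopatch 200A in KCl pipette and NaCl bath solutions. Compound was applied at 0.5 to 100 μM, and IC50 came from Hill equation fits.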"}, "[1]": {"test_system": "anesthetized rats subjected to coronary artery occlusion", "experiment": "Antiarrhythmic efficacy: arrhythmias after coronary artery occlusion in anesthetized rats", "format": "in vivo, rat", "conditions": "i.v. infusion", "excerpt": "Antiarrhythmic efficacy may be assessed by investigating the effect of a compound on the incidence of cardiac arrhythmias in anesthetized rats subjected to coronary artery occlusion. Rats weighing 200–300 gms are subjected to preparative surgery and assigned to groups in a random block design. In each case, the animal is anesthetized with pentobarbital during surgical preparation. The left carotid artery is cannulated for measurement of mean arterial blood pressure and withdrawal of blood samples. The left jugular vein is also cannulated for injection of drugs. The thoracic cavity is opened and a polyethylene occluder loosely placed around the left anterior descending coronary artery. The thoracic cavity is then closed. An ECG is recorded by insertion of electrodes placed along the anatomical axis of the heart. […] ECG, arrhythmias, blood pressure, heart rate and mortality are monitored for 15 minutes after occlusion. Arrhythmias are recorded as ventricular tachycardia (VT) and ventricular fibrillation (VF) and scored according to Curtis, M. J. and Walker, M. J. A., Cardiovasc. […]\nOcclusion is associated with R-wave height and “S-T” segment elevation; and an occluded zone (measured after death by cardiogreen dye perfusion) in the range of 25%–50% of total left-ventricular weight.\nResults of the test compounds may be expressed as values of a given infusion rate in micromol/kg/min. […]"}}}
{"compound": "COc1ccc(CCCOc2cccn3cc(C)nc23)cc1OC", "note": "[Compound 3, 8-[3-(3,4-DIMETHOXYPHENYL)PROPOXY]-2-METHYLIMIDAZO[1,2-α]PYRIDINE MONOHYDROCHLORDE]", "values": [{"measurement": "IC50", "setting": "hH1 Na+ current", "result": 94, "unit": "µM"}, {"measurement": "IC50", "setting": "HERG", "result": 0.6, "unit": "µM"}, {"measurement": "ED50AA (infusion rate reducing arrhythmia score to 50% of vehicle-treated animals)", "setting": "[1]", "result": 5, "unit": "µmol/kg/min"}]}
